Where “and” joins values, the source holds several entries; their conditions need not be identical. Identical values can stand only once. Like-named read-outs stand apart in the source and are kept apart here.
Assay: Half-life of ADR destruction by UVA light in the presence of test compounds (decrease in absorbance at 480 nm)
Format: physicochemical
[1] = UVA light, 100 μM test compound alone
[2] = UVA light, 100 μM test compound with 0.5 μM riboflavin

COc1ccccc1O [2-Methoxy Phenol]
Half-Life of ADR Destruction, 100 μM Test Compound [1]: 50.2 min
Half-Life of ADR Destruction, 100 μM Test Compound and 0.5 μM Riboflavin [2]: 50.2 min

C1=CCNC1 [Compound 3-Pyrroline, 3-Pyrroline]
Half-Life of ADR Destruction, 100 μM Test Compound and 0.5 μM Riboflavin [2]: 43.0 min

COc1ccc(C=CCO)cc1O [3-Hydroxy-4-Methoxy Cinnamyl Alcohol]
Half-Life of ADR Destruction, 100 μM Test Compound [1]: 50.2 min
Half-Life of ADR Destruction, 100 μM Test Compound and 0.5 μM Riboflavin [2]: 50.2 min

CC(C(=O)O)c1ccccc1 (stereo not drawn) [α-Methyl-Phenylacetic Acid]
Half-Life of ADR Destruction, 100 μM Test Compound and 0.5 μM Riboflavin [2]: 50.2 min

COc1ccc(C=C(C)C=O)cc1 [4-Methoxy-α-Methyl Cinnamaldehyde]
Half-Life of ADR Destruction, 100 μM Test Compound and 0.5 μM Riboflavin [2]: 20.1 min

N[C@@H](CSSC[C@H](N)C(=O)O)C(=O)O [Cystine]
Half-Life of ADR Destruction, 100 μM Test Compound and 0.5 μM Riboflavin [2]: 150.5 min

OCCc1c[nH]c2ccccc12 [3-Indoleethanol]
Half-Life of ADR Destruction, 100 μM Test Compound and 0.5 μM Riboflavin [2]: 8.14 min

COc1ccc2c(CC(=O)O)cc(=O)oc2c1 [7-Methoxycoumarin-4-acetic acid]
Half-Life of ADR Destruction, 100 μM Test Compound [1]: 14.3 min
Half-Life of ADR Destruction, 100 μM Test Compound and 0.5 μM Riboflavin [2]: 11.6 min

COc1cccc2cc[nH]c12 [7-Methoxy Indole]
Half-Life of ADR Destruction, 100 μM Test Compound [1]: 43.0 min
Half-Life of ADR Destruction, 100 μM Test Compound and 0.5 μM Riboflavin [2]: 7.72 min

O=C(O)CCc1ccc(O)c(O)c1 [3-(3,4-Dihydroxyphenyl) Propionic Acid]
Half-Life of ADR Destruction, 100 μM Test Compound [1]: 75.3 min

Nc1cccc(CC(=O)O)c1 [3-Amino Phenylacetic acid]
Half-Life of ADR Destruction, 100 μM Test Compound and 0.5 μM Riboflavin [2]: 13.7 min

Nc1ccc(C(=O)O)cc1O [4-Amino-3-Hydroxy Benzoic Acid]
Half-Life of ADR Destruction, 100 μM Test Compound and 0.5 μM Riboflavin [2]: 75.3 min

COc1ccc2[nH]cc(CCO)c2c1 [5-Methoxy-3-indoleethanol]
Half-Life of ADR Destruction, 100 μM Test Compound [1]: 33.5 min
Half-Life of ADR Destruction, 100 μM Test Compound and 0.5 μM Riboflavin [2]: 9.12 min

COc1ccc(O)cc1 [4-Methoxy Phenol]
Half-Life of ADR Destruction, 100 μM Test Compound [1]: 50.2 min
Half-Life of ADR Destruction, 100 μM Test Compound and 0.5 μM Riboflavin [2]: 43.0 min

4-Ethoxyphenyl-2-furyl ketone
Half-Life of ADR Destruction, 100 μM Test Compound [1]: 12.5 min
Half-Life of ADR Destruction, 100 μM Test Compound and 0.5 μM Riboflavin [2]: 11.2 min

O=C(O)C(=O)Cc1c[nH]c2ccccc12 [Indole-3-pyruvic acid]
Half-Life of ADR Destruction, 100 μM Test Compound and 0.5 μM Riboflavin [2]: 6.74 min

O=C(O)C=Cc1ccc(O)c(O)c1 [3,4-Dihydroxy Cinnamic Acid]
Half-Life of ADR Destruction, 100 μM Test Compound [1]: 75.3 min

O=C(c1ccccc1)c1cccnc1C(=O)O [3-Benzoylpyridine-2-carboxylic acid]
Half-Life of ADR Destruction, 100 μM Test Compound [1]: 43.0 min
Half-Life of ADR Destruction, 100 μM Test Compound and 0.5 μM Riboflavin [2]: 43.0 min

C1CCNC1 [Pyrrolidine]
Half-Life of ADR Destruction, 100 μM Test Compound and 0.5 μM Riboflavin [2]: 50.2 min

Cc1cc2nc3[nH]c(=O)[nH]c(=O)c3nc2cc1C [Lumichrome]
Half-Life of ADR Destruction, 100 μM Test Compound: 6.02 min
Half-Life of ADR Destruction, 100 μM Test Compound and 0.5 μM Riboflavin: 3.86 min

O=C(O)Cc1ccsc1 [Thiophene-3-acetic acid]
Half-Life of ADR Destruction, 100 μM Test Compound [1]: 43.0 min
Half-Life of ADR Destruction, 100 μM Test Compound and 0.5 μM Riboflavin [2]: 33.5 min

Nc1ccc(C(=O)c2ccc(N)cc2)cc1 [4,4′-Diamino-benzophenone]
Half-Life of ADR Destruction, 100 μM Test Compound and 0.5 μM Riboflavin [2]: 27.4 min

CCC(=O)c1ccc2cc(OC)ccc2c1 [6-Methoxy-propionaphthone]
Half-Life of ADR Destruction, 100 μM Test Compound: 30.1 min
Half-Life of ADR Destruction, 100 μM Test Compound and 0.5 μM Riboflavin: 27.4 min

O=Cc1ccc2ccccc2c1 [2-Naphthaldehyde]
Half-Life of ADR Destruction, 100 μM Test Compound [1]: 6.14 min
Half-Life of ADR Destruction, 100 μM Test Compound and 0.5 μM Riboflavin [2]: 5.68 min

NC(=O)c1ccc(N)cc1 [4-Aminobenzamide]
Half-Life of ADR Destruction, 100 μM Test Compound and 0.5 μM Riboflavin [2]: 13.4 ± 4.7 min

CC(C)(C)c1ccc(N)cc1 [4-tert-Butyl Aniline]
Half-Life of ADR Destruction, 100 μM Test Compound and 0.5 μM Riboflavin [2]: 27.4 min

Nc1ccccc1C(=O)c1ccccc1 [2-Aminobenzophenone]
Half-Life of ADR Destruction, 100 μM Test Compound and 0.5 μM Riboflavin: 16.7 min

Cc1cc(C)cc(N)c1 [3,5-Dimethyl Aniline]
Half-Life of ADR Destruction, 100 μM Test Compound and 0.5 μM Riboflavin [2]: 100.4 ± 70.9 min

O=C(O)c1ccccc1C(=O)c1ccccc1 [2-Benzophenone-carboxylic acid]
Half-Life of ADR Destruction, 100 μM Test Compound: 50.2 min

Nc1ccc(Oc2ccccc2)cc1 [4-Phenoxyaniline]
Half-Life of ADR Destruction, 100 μM Test Compound [1]: 75.3 min
Half-Life of ADR Destruction, 100 μM Test Compound and 0.5 μM Riboflavin [2]: 15.1 min

O=C(O)CCOc1cccc2ccccc12 [3-(1-naphthyloxy) propionic acid]
Half-Life of ADR Destruction, 100 μM Test Compound [1]: 75.3 min

O=C(c1ccccc1)c1cccs1 [2-Benzoylthiophene]
Half-Life of ADR Destruction, 100 μM Test Compound [1]: 9.41 min
Half-Life of ADR Destruction, 100 μM Test Compound and 0.5 μM Riboflavin [2]: 8.85 min

Cc1ccc2[nH]ccc2c1 [5-Methyl Indole]
Half-Life of ADR Destruction, 100 μM Test Compound and 0.5 μM Riboflavin [2]: 8.85 min

COc1ccc(C(C)=O)cc1 [4′-Methoxyacetophenone]
Half-Life of ADR Destruction, 100 μM Test Compound and 0.5 μM Riboflavin [2]: 33.4 min

CCCc1ccc(N)cc1 [4-Propyl Aniline]
Half-Life of ADR Destruction, 100 μM Test Compound and 0.5 μM Riboflavin [2]: 7.34 min

CC(=O)c1cccc(O)c1 [3′-Hydroxyacetophenone]
Half-Life of ADR Destruction, 100 μM Test Compound [1]: 75.3 min

COc1cccc(O)c1 [3-Methoxy Phenol]
Half-Life of ADR Destruction, 100 μM Test Compound [1]: 43.0 min

NCc1ccccc1N [2-Amino Benzylamine]
Half-Life of ADR Destruction, 100 μM Test Compound and 0.5 μM Riboflavin [2]: 14.3 min

COc1ccc(C[C@H](N)C(=O)O)cc1 [4-Methoxy Phenylalanine]
Half-Life of ADR Destruction, 100 μM Test Compound and 0.5 μM Riboflavin [2]: 15.1 min

Cc1ccc2[nH]c(C)cc2c1 [2,5-Dimethyl Indole]
Half-Life of ADR Destruction, 100 μM Test Compound [1]: 17.7 min
Half-Life of ADR Destruction, 100 μM Test Compound and 0.5 μM Riboflavin [2]: 5.79 min

Cn1c(=O)[nH]c2[nH]c(=O)[nH]c2c1=O [1-Methyl Uric acid]
Half-Life of ADR Destruction, 100 μM Test Compound and 0.5 μM Riboflavin [2]: 33.4 min

COc1ccc2c(C)c(C)[nH]c2c1 [6-Methoxy-2,3-dimethyl Indole]
Half-Life of ADR Destruction, 100 μM Test Compound [1]: 43.0 min
Half-Life of ADR Destruction, 100 μM Test Compound and 0.5 μM Riboflavin [2]: 23.2 min

c1ccc2c3c([nH]c2c1)CCCCCC3 [2,3-Cyclooctenoindole]
Half-Life of ADR Destruction, 100 μM Test Compound and 0.5 μM Riboflavin [2]: 15.8 min

Nc1ncnc2c1ncn2[C@@H]1O[C@H](CO)[C@@H](O)[C@H]1O [Adenine-9-ribose (Adenosine), Adenine-9-ribose, reference compound]
Half-Life of ADR Destruction, 100 μM Test Compound [1]: 50.2 min
Half-Life of ADR Destruction, 100 μM Test Compound and 0.5 μM Riboflavin [2]: 43.0 min

O=C(O)c1cccc2ccccc12 [Naphthalene-1-carboxylic acid]
Half-Life of ADR Destruction, 100 μM Test Compound [1]: 50.2 min
Half-Life of ADR Destruction, 100 μM Test Compound and 0.5 μM Riboflavin [2]: 43.0 min

O=C(O)c1ccc2c(c1)-c1ccccc1-2 [2-Biphenylene Carboxylic Acid]
Half-Life of ADR Destruction, 100 μM Test Compound and 0.5 μM Riboflavin [2]: 15.8 min

N[C@@H](Cc1ccccc1O)C(=O)O [2-Hydroxy Phenylalanine]
Half-Life of ADR Destruction, 100 μM Test Compound and 0.5 μM Riboflavin [2]: 15.1 min

Nc1ccccc1CO [2-Amino Benzyl Alcohol]
Half-Life of ADR Destruction, 100 μM Test Compound and 0.5 μM Riboflavin [2]: 3.96 min

O=C(O)c1cc2ccccc2o1 [2-Benzofurancarboxylic acid]
Half-Life of ADR Destruction, 100 μM Test Compound and 0.5 μM Riboflavin [2]: 50.2 min

Cc1ccc(CO)cc1N [3-Amino-4-Methyl Benzyl Alcohol]
Half-Life of ADR Destruction, 100 μM Test Compound and 0.5 μM Riboflavin [2]: 23.2 min

O=C(O)C(=O)c1c[nH]c2ccccc12 [3-Indole glyoxylic acid]
Half-Life of ADR Destruction, 100 μM Test Compound and 0.5 μM Riboflavin [2]: 43.0 min

O=C1c2c(O)cccc2C([C@@H]2O[C@H](CO)[C@@H](O)[C@H](O)[C@H]2O)c2cc(CO)cc(O)c21 (stereo partly drawn) [Aloin]
Half-Life of ADR Destruction, 100 μM Test Compound [1]: 75.3 min
Half-Life of ADR Destruction, 100 μM Test Compound and 0.5 μM Riboflavin [2]: 75.3 min

COc1[nH]c2ccccc2c1CN(C)C [2-Methoxy-3-(dimethylaminomethyl) indole]
Half-Life of ADR Destruction, 100 μM Test Compound [1]: 75.3 min
Half-Life of ADR Destruction, 100 μM Test Compound and 0.5 μM Riboflavin [2]: 13.7 min

Nc1cc(F)cc(F)c1 [3,5-Difluoro Aniline]
Half-Life of ADR Destruction, 100 μM Test Compound and 0.5 μM Riboflavin [2]: 15.1 min

c1ccc2sccc2c1 [Thianaphthalene]
Half-Life of ADR Destruction, 100 μM Test Compound and 0.5 μM Riboflavin [2]: 50.2 min

O=C(O)Cc1c[nH]c2ccccc12 [Indole-3-acetic acid]
Half-Life of ADR Destruction, 100 μM Test Compound [1]: 27.4 ± 14.1 min
Half-Life of ADR Destruction, 100 μM Test Compound and 0.5 μM Riboflavin [2]: 3.75 ± 0.22 min

Oc1ccc2[nH]ccc2c1 [5-Hydroxy Indole]
Half-Life of ADR Destruction, 100 μM Test Compound and 0.5 μM Riboflavin [2]: 150.5 min and 75.3 min

Nc1cccc(CO)c1 [3-Amino Benzyl Alcohol]
Half-Life of ADR Destruction, 100 μM Test Compound and 0.5 μM Riboflavin [2]: 7.34 min

O=c1[nH]cnc2nc[nH]c12 [Hypoxanthine]
Half-Life of ADR Destruction, 100 μM Test Compound and 0.5 μM Riboflavin [2]: 43.0 min

CC(O)c1ccc2ccccc2c1 (stereo not drawn) [α-Methyl-2-naphthalenemethanol]
Half-Life of ADR Destruction, 100 μM Test Compound [1]: 43.0 min
Half-Life of ADR Destruction, 100 μM Test Compound and 0.5 μM Riboflavin [2]: 33.5 min

C=C1C[C@]23C[C@@]1(O)CC[C@H]2[C@@]12C=C[C@H](O)[C@@](C)(C(=O)O1)[C@H]2[C@@H]3C(=O)O [Gibberellic acid]
Half-Life of ADR Destruction, 100 μM Test Compound [1]: 43.0 min

Nc1cc[nH]c(=O)n1 [Cytosine]
Half-Life of ADR Destruction, 100 μM Test Compound [1]: 50.2 min
Half-Life of ADR Destruction, 100 μM Test Compound and 0.5 μM Riboflavin [2]: 43.0 min

COc1ccc2[nH]ccc2c1 [5-Methoxy Indole]
Half-Life of ADR Destruction, 100 μM Test Compound and 0.5 μM Riboflavin [2]: 25.1 min and 14.3 min

COC(=O)[C@@H](N)Cc1ccc(O)cc1 [Tyrosine Methyl Ester]
Half-Life of ADR Destruction, 100 μM Test Compound and 0.5 μM Riboflavin [2]: 43.0 min

COc1cc(/C=C/CO)ccc1O[C@@H]1O[C@H](CO)[C@@H](O)[C@H](O)[C@H]1O [Coniferin]
Half-Life of ADR Destruction, 100 μM Test Compound [1]: 50.2 min
Half-Life of ADR Destruction, 100 μM Test Compound and 0.5 μM Riboflavin [2]: 15.1 min

Nc1c(F)cccc1F [2,6-Difluoro Aniline]
Half-Life of ADR Destruction, 100 μM Test Compound and 0.5 μM Riboflavin [2]: 27.4 min
